In test [1] the test system is Male albino Sprague-Dawley rats. Nature of the test: Rat Social Interaction Test (SIT). It counts as in vivo. As for the experimental part: Rats were allowed to acclimate to the animal care facility for 5 days and were housed singly for 5 days prior to testing. Animals were handled for 5 minutes per day. The design and procedure for the Social Interaction Test was carried out as previously described by Kennett, et al. (1997). On the test day, weight matched pairs of rats (±5%), unfamiliar to each other, were given identical treatments and returned to their home cages. Animals were randomly divided into 5 treatment groups, with 5 pairs per group, and were given one of the following i.p. treatments: Example 92 (10, 30 or 100 mg/kg), vehicle (1 ml/kg) or chlordiazepoxide (5 mg/kg). Dosing was 1 hour prior to testing. Rats were subsequently placed in a white perspex test box or arena (54×37×26 cm), whose floor was divided up into 24 equal squares, for 15 minutes. An air conditioner was used to generate background noise and to keep the room at approximately 74° F. All sessions were videotaped using a JVC camcorder (model GR-SZ1, Elmwood Park, N.J.) with either TDK (HG ultimate brand) or Sony 30 minute videocassettes. All sessions were conducted between 1:00-4:30 P.M. Active social interaction, defined as grooming, sniffing, biting, boxing, wrestling, following and crawling over or under, was scored using a stopwatch (Sportsline model no. 226, 1/100 sec. discriminability). The number of episodes of rearing (animal completely raises up its body on its hind limbs), grooming (licking, biting, scratching of body), and face washing (i.e. hands are moved repeatedly over face), and number of squares crossed were scored. Passive social interaction (animals are lying beside or on top of each other) was not scored. All behaviors were assessed later by an observer who was blind as to the treatment of each pair. At the end.of each test, the box was thoroughly wiped with moistened paper towels.
Male albino Sprague-Dawley rats (Taconic Farms, N.Y.) were housed in pairs under a 12 hr light dark cycle (lights on at 0700 hrs.) with free access to food and water.
Example 92 was dissolved in 100% DMSO (Sigma Chemical Co., St. Louis, Mo.). Chlordiazepoxide (purchased from Sigma Chemical Co., St. Louis, Mo.) was dissolved in double distilled water. The vehicle consisted of 50% DMSO (v/v). All drug solutions were made up 10 minutes prior to injection and the solutions were discarded.
Example 34 was dissolved in 5% lactic acid, v/v. The vehicle consisted of 100% dimethylacetamide (DMA) and this was used to make up all drug solutions. All drug solutions were made up fresh each day and any unused solutions were discarded at the end of the test day. The volume of drug solution administered was 1 ml/kg.
The social interaction data (time interacting, rearing and squares crossed) were subjected to a randomized, one-way ANOVA and post hoc tests conducted using the Student-Newman-Keuls test. The data were subjected to a test of normality (Shapiro-Wilk test). The data were analyzed using the GBSTAT program, version 6.5 (Dynamics Microsystems, Inc., Silver Spring, Md., 1997). All data are presented as means ±S.E.M.

Test [2] deals with T1, human GAL2 receptor (Homo sapiens, UniProt O43603).
T1 construct: expressed in transfected cells
T1 sequence (O43603 1-387): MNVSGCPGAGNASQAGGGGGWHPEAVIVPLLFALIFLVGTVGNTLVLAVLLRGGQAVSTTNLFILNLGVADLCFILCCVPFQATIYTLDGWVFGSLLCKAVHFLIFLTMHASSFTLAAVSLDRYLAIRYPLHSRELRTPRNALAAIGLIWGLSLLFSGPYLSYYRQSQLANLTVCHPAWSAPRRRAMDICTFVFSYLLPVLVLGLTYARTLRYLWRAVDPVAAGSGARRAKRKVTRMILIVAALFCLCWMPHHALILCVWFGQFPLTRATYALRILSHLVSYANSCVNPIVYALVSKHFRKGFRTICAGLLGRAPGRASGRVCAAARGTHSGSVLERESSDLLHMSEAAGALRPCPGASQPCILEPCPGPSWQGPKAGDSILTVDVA
Nature of the test: Radioligand binding at cloned human GAL2 receptor. To be noted: pyrimidines, Tables 1-3, read-out: Ki (nM) GalR2. How it is done: (§1) The present invention provides for a method of determining the binding affinity of a GAL3 antagonist, wherein the GAL3 antagonist is dissolved in a “suitable solvent”. A “suitable solvent” means one which permits the measurement of binding affinity of the GAL3 antagonist to the human GAL3 receptor at concentrations less than 1 μM, preferably less than 100 nM. Examples of solvents include, but are not limited to, DMSO, ethanol, N,N-dimethylacetamide, or water. For indolones, the preferred solvent is 3% DMSO (final concentration in the assay). For pyrimidines, the preferred solvent is 1% ethanol/0.09% polypuronic acid F-127 (final concentration in the assay). For any other type of compounds, the preferred solvent is the solvent which permits the measurement of binding affinity of a GAL3 antagonist at the lowest concentration. Once a suitable solvent is ascertained for the binding assay of the human GAL3 receptor, the same solvent is used in assays to determine the binding affinity for instance, at the GAL1 receptor.
(§2) The binding properties of the pyrimidines of the present invention were evaluated at the cloned human galanin receptors, GAL1, GAL2, and GAL3, using protocols described herein.
(§3) The binding properties of the indolones of the present invention were evaluated at the cloned human galanin receptors, GAL1, GAL2, and GAL3, using protocols described herein.
(§4) LM(tk-) cells were stably transfected with the human GAL1 or GAL3 receptor. CHO cells were stably transfected with the human GAL2 receptor.
(§5) cDNAs for the human and rat GAL1, and human and rat GAL3 receptors were transfected with a G-418 resistant gene into the mouse fibroblast LM(tk-) cell line by a calcium phosphate transfection method (Cullen, 1967). Stably transfected cells were selected with G-418. Human and rat GAL2 receptors were similarly transfected into CHO cells.
(§6) Membranes were harvested from stably transfected LM(tk-) cells. Adherent cells were washed twice in ice-cold phosphate buffered saline (138 mM NaCl, 8.1 mM Na2HPO4, 2.5 mM KCl, 1.2 mM KH2PO4, 0.9 mM CaCl2, 0.5 mM MgCl2, pH 7.4) and lysed by sonication in ice-cold sonication buffer (20 mM Tris-HCl, 5 mM EDTA, pH 7.7). Large particles and debris were cleared by low speed centrifugation (200×g, 5 min, 4° C.). Membranes were collected from the supernatant fraction by centrifugation (32,000×g, 18 min, 4° C.), washed with ice-cold hypotonic buffer, and collected again by centrifugation (32,000×g, 18 min, 4° C.). The final membrane pellet was resuspended by sonication into a small volume of ice-cold binding buffer (−1 ml for every 5 plates: 10 mM NaCl, 20 mM HEPES, 0.22 mM KH2PO4, 1.26 mM CaCl2, 0.81 mM MgSO4, pH 7.4). Protein concentration was measured by the Bradford method (Bradford, 1976) using Bio-Rad Reagent, with bovine serum albumin as a standard. Membranes were held on ice for up to one hour and used fresh, or flash frozen and stored in liquid nitrogen. Membranes were prepared similarly from CHO cells.
(§7) Galanin Receptors: Binding assays were performed according to the following published methods: human GAL3 (PCT International Publication No. WO 98/15570), human GAL1 (PCT International Publication No. WO 95/2260) human GAL2 (PCT International Publication No. WO 97/26853).
(§8) Binding data were analyzed using nonlinear regression and statistical techniques available in the GraphPAD Prism package (San Diego, Calif.). Enzymatic assay data were derived from a standard curve of reference compound data.

Test [3] addresses T2, human GAL1 receptor (Homo sapiens, UniProt P47211).
T2 construct: expressed in transfected cells
T2 sequence (P47211 1-349): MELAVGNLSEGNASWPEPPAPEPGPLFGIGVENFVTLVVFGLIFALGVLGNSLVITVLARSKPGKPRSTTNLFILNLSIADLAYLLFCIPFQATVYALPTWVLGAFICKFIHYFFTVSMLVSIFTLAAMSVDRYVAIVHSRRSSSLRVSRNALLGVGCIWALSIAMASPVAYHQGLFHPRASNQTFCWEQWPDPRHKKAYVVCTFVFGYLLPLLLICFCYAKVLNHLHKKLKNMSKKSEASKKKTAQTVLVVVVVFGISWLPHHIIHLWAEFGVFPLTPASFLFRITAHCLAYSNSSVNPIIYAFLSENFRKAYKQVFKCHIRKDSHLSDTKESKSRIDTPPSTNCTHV
Nature of the test: Radioligand binding at cloned human GAL1 receptor. To be noted: pyrimidines, Tables 1-3, read-out: Ki (nM) GalR1. How it is done:
as §1, §2, §3, §4, §5, §6, §7, §8

Test [4] deals with T3, human GAL3 receptor (Homo sapiens, UniProt O60755).
T3 construct: expressed in transfected cells
T3 sequence (O60755 1-368): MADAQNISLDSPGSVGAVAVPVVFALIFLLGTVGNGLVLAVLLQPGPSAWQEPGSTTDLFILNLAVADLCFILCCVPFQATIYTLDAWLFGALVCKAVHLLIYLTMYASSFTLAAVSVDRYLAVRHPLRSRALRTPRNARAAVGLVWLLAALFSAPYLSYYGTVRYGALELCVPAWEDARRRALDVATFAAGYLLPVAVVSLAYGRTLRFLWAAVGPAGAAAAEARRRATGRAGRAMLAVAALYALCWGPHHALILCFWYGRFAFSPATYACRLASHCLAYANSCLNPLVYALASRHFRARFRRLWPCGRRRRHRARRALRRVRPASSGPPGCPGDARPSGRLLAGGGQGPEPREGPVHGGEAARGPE
Kind of test: Radioligand binding at cloned human GAL3 receptor. Particulars: cloned human GAL3 receptor. How it is done:
as §1, §2, §3, §4, §5, §6, §7, §8

Where [5] appears, read: pyrimidines, Tables 1-3, read-out: Ki (nM) GalR3.
Setting [6] is: indolones, Table 4a, read-out: Ki (nM) Gal3.
Where [7] appears, read: pyrimidines, Table 3a, read-out: Ki (nM) Gal3.

Like-named read-outs stand apart in the source and are kept apart here. Marks after values point to notes of the source that are not given here.

Regarding `CNC1=Nc2ccc(Cl)cc2C(c2ccccc2)=[N+]([O-])C1` [Chlordiazepoxide, chlordiazepoxide, reference compound], the “Social Interaction (sec)” value in test [1] (5 mg/kg i.p., 1 hour before 15 min test, unfamiliar rats) is 188 ± 15^b sec; in test [1] (5 mg/kg p.o., one hour before test, unfamiliar cage mates in a familiar arena) it was 122 ± 18^$ sec.

As usually defined, the Ki is the dissociation constant of the complex between target and ligand, obtained from inhibition or displacement. As for `CN(CCc1c[nH]c2ccccc12)c1nc(NCCc2ccccc2)cc(N2CCCCC2)n1` [Example 12], the Ki in test [2] is 2000 nM; in test [3] it was above 5000 nM; in test [4] (setting [5]) it was 322 nM.

`C[C@H]1CC2CC([C@@H]1Nc1cc(N(C)C)nc(Nc3ccccc3)n1)C2(C)C` (stereo partly drawn) [Example 71]: the Ki in test [2] is 944 nM; in test [4] (setting [5]), 72 nM.

Turning to `CN1C(=O)c2ccc(/N=C3\C(=O)N(c4ccccc4)c4ccccc43)cc2C1=O` [Example 110, 2-METHYL-5-[(2-OXO-1-PHENYL-1,2-DIHYDRO-3H-INDOL-3-YLIDENE)AMINO]-2H—ISOINDOLE-1,3(2H)-DIONE], the inhibitory constant (Ki) in test [4] (setting [6]) was found to be 138 nM.

Take `CN(C)c1cc(NC23CC4CC(CC2C4)C3)nc(N2CCN(Cc3ccccc3)CC2)n1` [Example 137]: in test [4] (setting [7]), the Ki is 124 nM.

`CN(C)c1cc(N[C@@H]2C[C@H]3CC[C@]2(C)C3(C)C)nc(N2CCN(Cc3ccccc3)CC2)n1` [Example 153]: the Ki in test [4] (setting [7]) came to 55 nM.

As for `CN(C)c1cc(Nc2ccccc2Cl)nc(N2CCN(c3ccccn3)CC2)n1` [Example 195], the inhibition constant Ki in test [4] (setting [7]) came to 388 nM.

On to `CN(C)c1cc(Nc2ccc(Cl)cc2C(F)(F)F)nc(N2CCN(Cc3ccccc3)CC2)n1` [Example 239], for which, in test [4] (setting [7]), the Ki is 59 nM.

On to `O=C1/C(=N\c2ccc(Oc3ccccc3)cc2)c2ccccc2N1c1ccsc1` [Example 268, 3Z)-3-[(4-PHENOXYPHENYL)IMINO]-1-(3-THIENYL)-1,3-DIHYDRO-2H-INDOL-2-ONE], for which, in test [4] (setting [6]), the inhibitory constant (Ki) stood at 57 nM.

In the case of `Cc1ccc(/N=C2\C(=O)N(c3ccccc3)c3ccccc32)c(Cl)c1` [Example 286], the inhibition constant (Ki) in test [4] (setting [6]) amounted to 38 nM.

On to `O=C1/C(=N\c2ccc(-c3cccc(C(F)(F)F)c3)cc2)c2ccccc2N1c1ccccc1` [Example 305, (3Z)-1-PHENYL-3-{[3′-(TRIFLUOROMETHYL)[1,1′-BIPHENYL]-4-YL]IMINO}-1,3-DIHYDRO-2H-INDOL-2-ONE], for which the Ki in test [4] (setting [6]) was determined as 638 nM.

“N^2-[2-(1H-INDOL-3-YL)ETHYL]-N^2,N^4,N^4-TRIMETHYL-(2-NAPHTHYL)-6-(1-PIPERIDINYL)-2,4,6-PYRIMIDINETRIAMINE [Example 79]”: the values for the Ki in test [2], in test [3] and in test [4] (setting [5]) were 1660 nM, 3800 nM and 190 nM, respectively.

(Values after US20040110821A1, “GAL3 receptor antagonists for the treatment of affective disorders” (priority 2002, published 2004).)
